Converted amounts (≈) assume the structure as drawn.
Columns and labels:
Experiment in all cases: ≥ marks a high value that may be exact or a test limit, other limits are often not marked, values filed in µg/mL are converted to µM
[1] = tested on: Escherichia coli ATCC 25922
[2] = tested on: Pseudomonas aeruginosa ATCC 27853
[3] = tested on: Staphylococcus aureus ATCC 25923
[4] = tested on: Escherichia coli
[5] = tested on: Staphylococcus aureus

SMILES	MIC [1]	MIC [2]	MIC [3]	MIC [4]	MIC [5]
NC(=O)[C@H](CCCN=C(N)N)NC(=O)[C@H](Cc1c[nH]c2ccccc12)NC(=O)[C@H](Cc1ccc(O)cc1)NC(=O)[C@H](CCCN=C(N)N)NC(=O)[C@H](Cc1c[nH]c2ccccc12)NC(=O)[C@H](Cc1c[nH]c2ccccc12)NC(=O)[C@@H](N)CCCN=C(N)N [RWWRYWR]	8.28 µM (≈ 9.99 µg/mL)	16.6 µM (≈ 20 µg/mL)	2.07 µM (≈ 2.5 µg/mL)		
CC[C@H](C)[C@H](NC(=O)[C@H](CCCN=C(N)N)NC(=O)[C@@H](NC(=O)[C@H](CC(C)C)NC(=O)[C@H](CC(C)C)NC(=O)CN)[C@@H](C)O)C(=O)N[C@@H](CCCCN)C(=O)N[C@H](C(=O)N[C@@H](CC(C)C)C(=O)N[C@@H](CC(C)C)C(N)=O)[C@@H](C)O [GLLTRIKTLL]	200 µM (≈ 225 µg/mL)				
CSCC[C@H](NC(=O)[C@H](CCCN=C(N)N)NC(=O)[C@H](Cc1c[nH]c2ccccc12)NC(=O)[C@H](C)NC(=O)[C@H](Cc1c[nH]c2ccccc12)NC(=O)[C@H](CCCN=C(N)N)NC(=O)[C@H](CCCN=C(N)N)NC(=O)[C@H](C)NC(=O)[C@H](CCCCN)NC(=O)[C@H](Cc1ccccc1)NC(=O)[C@H](Cc1c[nH]c2ccccc12)NC(=O)[C@H](C)NC(=O)[C@@H]1CCCN1)C(=O)N[C@@H](CC(C)C)C(=O)N[C@@H](CCCCN)C(=O)N[C@@H](CCCCN)C(=O)N[C@@H](C)C(=O)N[C@@H](C)C(=O)O [PAWFKARRWAWRMLKKAA]	4.4 µM (≈ 10 µg/mL)		2.2 µM (≈ 5 µg/mL)		
CC(C)C[C@H](NC(=O)[C@H](CCC(N)=O)NC(=O)[C@H](CCCCN)NC(=O)[C@H](CCCN=C(N)N)NC(=O)[C@H](Cc1ccccc1)NC(=O)[C@H](C)N)C(=O)N[C@@H](CCCCN)C(=O)N[C@@H](Cc1c[nH]c2ccccc12)C(=O)O [AFRKQLKW]	3.72 µM (≈ 4 µg/mL)				
CSCC[C@H](NC(=O)[C@H](CCCN=C(N)N)NC(=O)[C@H](Cc1c[nH]c2ccccc12)NC(=O)[C@H](C)NC(=O)[C@H](Cc1c[nH]c2ccccc12)NC(=O)[C@H](CCCN=C(N)N)NC(=O)[C@H](CCCN=C(N)N)NC(=O)[C@H](C)NC(=O)[C@H](CCCCN)NC(=O)[C@@H](N)Cc1ccc(O)cc1)C(=O)N[C@@H](CCCCN)C(=O)O [YKARRWAWRMK]	32.2 µM (≈ 50 µg/mL)	129 µM (≈ 200 µg/mL)	32.2 µM (≈ 50 µg/mL)		
CC(C)C[C@H](NC(=O)[C@H](Cc1ccccc1)NC(=O)[C@@H]1CCCN1C(=O)[C@H](Cc1c[nH]c2ccccc12)NC(=O)[C@H](C)NC(=O)[C@H](C)NC(=O)[C@@H]1CCCN1C(=O)[C@H](Cc1ccccc1)NC(=O)[C@H](CCCN=C(N)N)NC(=O)[C@H](CCCN=C(N)N)NC(=O)[C@@H](N)C(C)C)C(=O)N[C@@H](CCCN=C(N)N)C(=O)N[C@@H](CCCN=C(N)N)C(N)=O [VRRFPAAWPFLRR]	90.5 µM (≈ 151 µg/mL)				
CSCC[C@H](NC(=O)[C@H](CCCCN)NC(=O)[C@H](CCCCN)NC(=O)[C@H](CCCCN)NC(=O)[C@H](CCCN=C(N)N)NC(=O)[C@H](CCCN=C(N)N)NC(=O)[C@H](Cc1ccc(O)cc1)NC(=O)[C@@H](N)CCCN=C(N)N)C(=O)N[C@@H](CCCCN)C(=O)N[C@@H](CCCCN)C(=O)N[C@@H](C)C(=O)N[C@@H](CC(C)C)C(=O)N[C@@H](CCC(N)=O)C(=O)N[C@@H](Cc1ccc(O)cc1)C(N)=O [RYRRKKKMKKALQY]	> 100 µM	> 100 µM			
CC(C)C[C@H](NC(=O)CN)C(=O)N[C@@H](CC(C)C)C(=O)N[C@@H](CCCCN)C(=O)N[C@@H](CCCN=C(N)N)C(N)=O [GLLKR]	> 52.9 µM		> 52.9 µM		
CC[C@H](C)[C@H](NC(=O)[C@H](CC(=O)O)NC(=O)[C@@H](NC(=O)[C@@H](NC(=O)CN)C(C)C)C(C)C)C(=O)N[C@@H](CC(C)C)C(=O)N[C@@H](CCCCN)C(=O)NCC(=O)N[C@@H](C)C(=O)N[C@@H](C)C(=O)N[C@@H](CCCCN)C(=O)N[C@@H](CC(=O)O)C(=O)N[C@@H](CC(C)C)C(=O)N[C@@H](C)C(=O)NCC(=O)N[C@@H](Cc1cnc[nH]1)C(=O)O [GVVDILKGAAKDLAGH]	79.9 µM (≈ 125 µg/mL)		20 µM (≈ 31.3 µg/mL)		
C[C@H](NC(=O)[C@H](C)NC(=O)[C@H](CCCCN)NC(=O)[C@H](CCCCN)NC(=O)[C@H](C)NC(=O)[C@H](C)NC(=O)[C@H](CCCCN)NC(=O)[C@H](C)NC(=O)[C@H](C)NC(=O)[C@H](CCCCN)NC(=O)[C@H](CCCCN)NC(=O)[C@H](C)NC(=O)[C@H](C)NC(=O)[C@@H](N)CCCCN)C(N)=O [KAAKKAAKAAKKAA]	47 µM (≈ 63.7 µg/mL)		> 256 µM		
CC(C)C[C@H](NC(=O)[C@H](CCCCN)NC(=O)[C@H](CCCCN)NC(=O)[C@H](C)NC(=O)[C@H](CC(C)C)NC(=O)[C@@H](N)CCCCN)C(=O)N[C@@H](C)C(N)=O [KLAKKLA]	> 100 µM	> 100 µM	> 100 µM		

Other lines, results leading:

MIC [1]	MIC [2]	MIC [3]	MIC [4]	MIC [5]	SMILES
	0.5 µM (≈ 1.48 µg/mL)				CC[C@H](C)[C@H](NC(=O)[C@H](CCCCN)NC(=O)[C@@H](N)Cc1ccccc1)C(=O)N[C@@H](CCCCN)C(=O)N[C@@H](C)C(=O)N[C@@H](CO)C(=O)N[C@@H](CCCCN)C(=O)N[C@@H](CCCCN)C(=O)N[C@@H](CC(C)C)C(=O)N[C@@H](CC(C)C)C(=O)N[C@@H](CCCCN)C(=O)N[C@@H](CCCCN)C(=O)N[C@H](C(=O)NCC(=O)N[C@@H](CCCCN)C(=O)NCC(=O)N[C@@H](C)C(=O)N[C@@H](CC(C)C)C(=O)NCC(=O)N[C@@H](C)C(=O)N[C@H](C(=O)N[C@@H](C)C(=O)N[C@@H](CCCCN)C(=O)N[C@@H](C)C(=O)N[C@@H](CC(C)C)C(=O)N[C@@H](C)C(=O)N[C@@H](CCC(N)=O)C(=O)N[C@@H](CCC(N)=O)C(=O)N[C@@H](C)C(=O)O)C(C)C)C(C)C [FKIKASKKLLKKVGKGALGAVAKALAQQA]
3.1 µM (≈ 8.32 µg/mL)					CC[C@H](C)[C@H](NC(=O)CN)C(=O)NCC(=O)N[C@@H](CCCCN)C(=O)N[C@@H](Cc1ccccc1)C(=O)N[C@@H](CC(C)C)C(=O)N[C@@H](Cc1cnc[nH]1)C(=O)N[C@@H](CO)C(=O)N[C@@H](C)C(=O)N[C@@H](CCCCN)C(=O)N[C@@H](CCCCN)C(=O)N[C@@H](Cc1ccccc1)C(=O)NCC(=O)N[C@@H](CCCCN)C(=O)N[C@@H](C)C(=O)N[C@@H](Cc1ccccc1)C(=O)N[C@H](C(=O)NCC(=O)N[C@@H](CCC(=O)O)C(=O)N[C@H](C(=O)N[C@@H](CCSC)C(=O)N[C@@H](CC(N)=O)C(=O)N[C@@H](CO)C(=O)NCC(=O)NCC(=O)N[C@@H](CS)C(N)=O)[C@@H](C)CC)C(C)C [GIGKFLHSAKKFGKAFVGEIMNSGGC]
8 µM (≈ 25.1 µg/mL)					CC[C@H](C)[C@H](NC(=O)[C@H](CO)NC(=O)[C@H](Cc1ccccc1)NC(=O)[C@H](CC(C)C)NC(=O)[C@H](C)N)C(=O)N[C@@H](CC(C)C)C(=O)N[C@@H](CCCN=C(N)N)C(=O)NCC(=O)N[C@@H](CC(C)C)C(=O)N[C@@H](CCCCN)C(=O)N[C@@H](CCCCN)C(=O)N[C@@H](CC(C)C)C(=O)NCC(=O)N[C@@H](CC(N)=O)C(=O)N[C@@H](CCSC)C(=O)NCC(=O)N[C@@H](CCC(N)=O)C(=O)N[C@@H](C)C(=O)N[C@@H](Cc1ccccc1)C(=O)N[C@H](C(=O)N[C@@H](CC(N)=O)C(=O)N[C@H]1CSSC[C@@H](C(=O)O)NC(=O)[C@H](CCCCN)NC(=O)[C@H](CCCCN)NC(=O)[C@H](Cc2ccc(O)cc2)NC(=O)[C@H]([C@@H](C)CC)NC(=O)[C@H](CCCCN)NC1=O)C(C)C [ALFSILRGLKKLGNMGQAFVNCKIYKKC]
16 µM (≈ 47.4 µg/mL)					CC[C@H](C)[C@H](NC(=O)CN)C(=O)N[C@@H](CCSC)C(=O)N[C@@H](CC(=O)O)C(=O)N[C@@H](CO)C(=O)N[C@H](C(=O)N[C@@H](CCCCN)C(=O)N[C@@H](CC(N)=O)C(=O)N[C@H](C(=O)N[C@@H](C)C(=O)N[C@@H](CCCCN)C(=O)N[C@@H](CC(N)=O)C(=O)N[C@H](C(=O)N[C@@H](C)C(=O)NCC(=O)N[C@@H](CCC(N)=O)C(=O)N[C@@H](CC(C)C)C(=O)N[C@@H](CC(C)C)C(=O)N[C@@H](CC(=O)O)C(=O)N[C@@H](CCCCN)C(=O)N[C@@H](CC(C)C)C(=O)N[C@@H](CCCCN)C(=O)N[C@H]1CSSC[C@@H](C(=O)O)NC(=O)CNC(=O)[C@H]([C@@H](C)O)NC(=O)[C@H]([C@@H](C)CC)NC(=O)[C@H](CCCCN)NC1=O)[C@@H](C)CC)C(C)C)C(C)C [GIMDSVKNVAKNIAGQLLDKLKCKITGC]
4 µM (≈ 8.77 µg/mL)	4 µM (≈ 8.77 µg/mL)	4 µM (≈ 8.77 µg/mL)			CC(C)C[C@H](NC(=O)[C@H](CCCCN)NC(=O)CNC(=O)[C@H](CC(C)C)NC(=O)[C@H](CCCCN)NC(=O)[C@H](CCCCN)NC(=O)CNC(=O)[C@H](CC(C)C)NC(=O)[C@H](CCCCN)NC(=O)CNC(=O)[C@H](CC(C)C)NC(=O)[C@H](CCCCN)NC(=O)[C@H](CCCCN)NC(=O)CNC(=O)[C@H](CC(C)C)NC(=O)[C@@H](N)CCCCN)C(=O)NCC(=O)N[C@@H](CCCCN)C(=O)N[C@@H](CCCCN)C(=O)N[C@@H](CC(C)C)C(=O)NCC(N)=O [KLGKKLGKLGKKLGKLGKKLG]
			3.3 µM (≈ 6.51 µg/mL)		CC[C@H](C)[C@H](NC(=O)[C@H](Cc1c[nH]c2ccccc12)NC(=O)[C@H](CCCCN)NC(=O)[C@@H]1CCCN1C(=O)[C@H](CC(C)C)NC(=O)[C@@H](N)CCCCN)C(=O)N[C@H](C(=O)N[C@@H](CCCCN)C(=O)N[C@H](C(=O)N[C@H](C(=O)N[C@@H](CC(N)=O)C(=O)N[C@@H](CCCCN)C(=O)N[C@@H](Cc1ccccc1)C(=O)N[C@H](C(=O)N[C@@H](CCCCN)C(=O)N[C@@H](CCCCN)C(=O)O)[C@@H](C)O)C(C)C)[C@@H](C)O)[C@@H](C)CC [KLPKWIIKTVNKFTKK]
			80 µM (≈ 190 µg/mL)	80 µM (≈ 190 µg/mL)	CSCC[C@H](NC(=O)CNC(=O)[C@H](C)NC(=O)[C@H](CCCCN)NC(=O)[C@H](C)NC(=O)[C@H](Cc1ccccc1)NC(=O)[C@H](CCCCN)NC(=O)[C@H](CCCCN)NC(=O)[C@H](CC(C)C)NC(=O)[C@@H](NC(=O)[C@H](CC(=O)O)NC(=O)[C@H](CC(C)C)NC(=O)[C@H](Cc1ccccc1)NC(=O)[C@H](CC(C)C)NC(=O)CN)[C@@H](C)O)C(=O)N[C@@H](CCC(=O)O)C(=O)N[C@@H](C)C(=O)N[C@H](C(=O)N[C@H](C(=O)N[C@@H](CC(N)=O)C(=O)N1CCC[C@H]1C(=O)N[C@@H](CCCCN)C(=O)O)[C@@H](C)O)C(C)C [GLFLDTLKKFAKAGMEAVTNPK]

— DBAASP
